Test system: RS4;11 cells
Experiment: RS4;11 cell viability assay (CellTiter Glo);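 also: acute lymphoblastic leukemia line RS4,11, EC50 derived from percentage of viable cells after treatment relative to untreated controls, cell killing taken as a measure of Bcl-2 inhibition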
Format: cell-based, human
Settings: 50,000 cells per well, 10% human serum, 48 hours; read-out: RS4; 11 EC50 Values
Protocol: The acute lymphoblastic leukemia (ALL) cell line RS4;11 was used as the primary human cell line to assess the cellular activity of Bcl-2 selective agents in vitro and their efficacy in vivo.
Cell cytotoxicity EC50 values were assessed using CellTiter Glo (Promega) according to the manufacturer's recommendations. The EC50 values were determined as a percentage of viable cells following treatment compared to the untreated control cells.

SMILES | EC50
CC1(C)CCC(CN2CCN(c3ccc(C(=O)NS(=O)(=O)c4cnc(OC[C@]5(F)CC[C@@](C)(O)CC5)c(Cl)c4)c(Oc4cnc5[nH]ccc5c4)c3)CC2)=C(c2ccc(Cl)cc2)C1 [Example 355, N-({5-chloro-6-[(trans-1-fluoro-4-hydroxy-4-methylcyclohexyl)methoxy]pyridin-3-yl}sulfonyl)-4-(4-{[2-(4-chlorophenyl)-4,4-dimethylcyclohex-1-en-1-yl]methyl}piperazin-1-yl)-2-(1H-pyrrolo[2,3-b]pyridin-5-yloxy)benzamide] | 0.0188 µM

Same assay, conditions: Homo sapiens, RS4-11, 48 h, 50,000 cells per well, 10% human serum, 48 hours; read-out: RS4; 11 EC50 Values

SMILES | EC50
CC1(C)CCC(CN2CCN(c3ccc(C(=O)NS(=O)(=O)c4ccc(NC5CCN(C6COC6)CC5)c([N+](=O)[O-])c4)c(Oc4cnc5[nH]ccc5c4)c3)CC2)=C(c2ccc(Cl)cc2)C1 [Example 139, 4-(4-{[2-(4-chlorophenyl)-4,4-dimethylcyclohex-1-en-1-yl]methyl}piperazin-1-yl)-N-({3-nitro-4-[(1-oxetan-3-ylpiperidin-4-yl)amino]phenyl}sulfonyl)-2-(1H-pyrrolo[2,3-b]pyridin-5-yloxy)benzamide] | 0.0168 µM
CC1(C)CCC(CN2CCN(c3ccc(C(=O)NS(=O)(=O)c4cnc(OCC5CCC(N(C6CC6)C6COC6)CC5)c(Cl)c4)c(Oc4cnc5[nH]ccc5c4)c3)CC2)=C(c2ccc(Cl)cc2)C1 (stereo not drawn) [Example 329, N-{[5-chloro-6-({4-[cyclopropyl(oxetan-3-yl)amino]cyclohexyl}methoxy)pyridin-3-yl]sulfonyl}-4-(4-{[2-(4-chlorophenyl)-4,4-dimethylcyclohex-1-en-1-yl]methyl}piperazin-1-yl)-2-(1H-pyrrolo[2,3-b]pyridin-5-yloxy)benzamide] | 0.424 µM
O=C(NS(=O)(=O)c1ccc(OCC2(F)CCOCC2)c([N+](=O)[O-])c1)c1ccc(N2CCN(CC3=C(c4ccc(Cl)cc4)CCC4(CCCC4)C3)CC2)cc1Oc1cnc2[nH]ccc2c1 [Example 73, 4-(4-{[8-(4-chlorophenyl)spiro[4.5]dec-7-en-7-yl]methyl}piperazin-1-yl)-N-({4-[(4-fluorotetrahydro-2H-pyran-4-yl)methoxy]-3-nitrophenyl}sulfonyl)-2-(1H-pyrrolo[2,3-b]pyridin-5-yloxy)benzamide] | 0.0237 µM
CC1(C)CCC(CN2CCN(c3ccc(C(=O)NS(=O)(=O)c4ccc(OCC5(F)CCN(C6COC6)CC5)c(C#N)c4)c(Oc4cnc5[nH]ccc5c4)c3)CC2)=C(c2ccc(Cl)cc2)C1 [Example 357, 4-(4-{[2-(4-chlorophenyl)-4,4-dimethylcyclohex-1-en-1-yl]methyl}piperazin-1-yl)-N-[(3-cyano-4-{[4-fluoro-1-(oxetan-3-yl)piperidin-4-yl]methoxy}phenyl)sulfonyl]-2-(1H-pyrrolo[2,3-b]pyridin-5-yloxy)benzamide] | 0.0132 µM
CO[C@H]1CC[C@H](CNc2ccc(S(=O)(=O)NC(=O)c3ccc(N4CCN(CC5=C(c6ccc(Cl)cc6)CC(C)(C)CC5)CC4)cc3Oc3cnc4[nH]ccc4c3)cc2[N+](=O)[O-])CC1 [Example 34, Trans-4-(4-{[2-(4-chlorophenyl)-4,4-dimethylcyclohex-1-en-1-yl]methyl}piperazin-1-yl)-N-[(4-{[(4-methoxycyclohexyl)methyl]amino}-3-nitrophenyl)sulfonyl]-2-(1H-pyrrolo[2,3-b]pyridin-5-yloxy)benzamide] | 0.00748 µM
CC1(C)CCC(CN2CCN(c3ccc(C(=O)NS(=O)(=O)c4cc(Cl)c(NCC5CCOCC5)c(C#N)c4)c(Oc4cnc5[nH]ccc5c4)c3)CC2)=C(c2ccc(Cl)cc2)C1 [Example 52, N-({3-chloro-5-cyano-4-[(tetrahydro-2H-pyran-4-ylmethyl)amino]phenyl}sulfonyl)-4-(4-{[2-(4-chlorophenyl)-4,4-dimethylcyclohex-1-en-1-yl]methyl}piperazin-1-yl)-2-(1H-pyrrolo[2,3-b]pyridin-5-yloxy)benzamide] | 0.2 µM
CC1(C)CCC(CN2CCN(c3ccc(C(=O)NS(=O)(=O)c4ccc(NC5CCN(C6CCOC(C)(C)C6)CC5)c([N+](=O)[O-])c4)c(Oc4cnc5[nH]ccc5c4)c3)CC2)=C(c2ccc(Cl)cc2)C1 (stereo not drawn) [Example 141, 4-(4-{[2-(4-chlorophenyl)-4,4-dimethylcyclohex-1-en-1-yl]methyl}piperazin-1-yl)-N-[(4-{[1-(2,2-dimethyltetrahydro-2H-pyran-4-yl)piperidin-4-yl]amino}-3-nitrophenyl)sulfonyl]-2-(1H-pyrrolo[2,3-b]pyridin-5-yloxy)benzamide] | 0.0204 µM
CC1(C)CCC(CN2CCN(c3ccc(C(=O)NS(=O)(=O)c4ccc(OCC5(F)CCOCC5)nc4)c(Oc4cnc5[nH]ccc5c4)c3)CC2)=C(c2ccc(Cl)cc2)C1 [Example 251, 4-(4-{[2-(4-chlorophenyl)-4,4-dimethylcyclohex-1-en-1-yl]methyl}piperazin-1-yl)-N-({6-[(4-fluorotetrahydro-2H-pyran-4-yl)methoxy]pyridin-3-yl}sulfonyl)-2-(1H-pyrrolo[2,3-b]pyridin-5-yloxy)benzamide] | 0.918 µM
CC1(C)CCC(CN2CCN(c3ccc(C(=O)NS(=O)(=O)c4cnc(OCC(C)(CO)CO)c(Cl)c4)c(Oc4cnc5[nH]ccc5c4)c3)CC2)=C(c2ccc(Cl)cc2)C1 [Example 250, N-({5-chloro-6-[3-hydroxy-2-(hydroxymethyl)-2-methylpropoxy]pyridin-3-yl}sulfonyl)-4-(4-{[2-(4-chlorophenyl)-4,4-dimethylcyclohex-1-en-1-yl]methyl}piperazin-1-yl)-2-(1H-pyrrolo[2,3-b]pyridin-5-yloxy)benzamide] | > 1 µM
CC1(C)CCC(CN2CCN(c3ccc(C(=O)NS(=O)(=O)c4ccc(NC5CCN(CC(F)F)CC5)c([N+](=O)[O-])c4)c(Oc4cnc5[nH]ccc5c4)c3)CC2)=C(c2ccc(Cl)cc2)C1 [Example 97, 4-(4-{[2-(4-chlorophenyl)-4,4-dimethylcyclohex-1-en-1-yl]methyl}piperazin-1-yl)-N-[(4-{[1-(2,2-difluoroethyl)piperidin-4-yl]amino}-3-nitrophenyl)sulfonyl]-2-(1H-pyrrolo[2,3-b]pyridin-5-yloxy)benzamide] | 0.0556 µM
CC1(C)CCC(CN2CCN(c3ccc(C(=O)NS(=O)(=O)c4ccc(NC[C@H]5CN(C6CC6)CCO5)c([N+](=O)[O-])c4)c(Oc4cnc5[nH]ccc5c4)c3)CC2)=C(c2ccc(Cl)cc2)C1 [Example 327, 4-(4-{[2-(4-chlorophenyl)-4,4-dimethylcyclohex-1-en-1-yl]methyl}piperazin-1-yl)-N-{[4-({[(2S)-4-cyclopropylmorpholin-2-yl]methyl}amino)-3-nitrophenyl]sulfonyl}-2-(1H-pyrrolo[2,3-b]pyridin-5-yloxy)benzamide] | 0.00272 µM
CC1(C)CCC(CN2CCN(c3ccc(C(=O)NS(=O)(=O)c4ccc(NCC5CCN(C(CF)CF)CC5)c([N+](=O)[O-])c4)c(Oc4cnc5[nH]ccc5c4)c3)CC2)=C(c2ccc(Cl)cc2)C1 [Example 172, 4-(4-{[2-(4-chlorophenyl)-4,4-dimethylcyclohex-1-en-1-yl]methyl}piperazin-1-yl)-N-({4-[({1-[2-fluoro-1-(fluoromethyl)ethyl]piperidin-4-yl}methyl)amino]-3-nitrophenyl}sulfonyl)-2-(1H-pyrrolo[2,3-b]pyridin-5-yloxy)benzamide] | 0.0205 µM
CC1(C)CCC(CN2CCN(c3ccc(C(=O)NS(=O)(=O)c4ccc(NCC5CN(CC(=O)O)CCO5)c([N+](=O)[O-])c4)c(Oc4cnc5[nH]ccc5c4)c3)CC2)=C(c2ccc(Cl)cc2)C1 (stereo not drawn) [Example 216, (2-{[(4-{[4-(4-{[2-(4-chlorophenyl)-4,4-dimethylcyclohex-1-en-1-yl]methyl}piperazin-1-yl)-2-(1H-pyrrolo[2,3-b]pyridin-5-yloxy)benzoyl]sulfamoyl}-2-nitrophenyl)amino]methyl}morpholin-4-yl)acetic acid] | 0.683 µM
CC1(C)CCC(CN2CCN(c3ccc(C(=O)NS(=O)(=O)c4ccc(NCc5ccc(OC(F)F)cc5)c([N+](=O)[O-])c4)c(Oc4cnc5[nH]ccc5c4)c3)CC2)=C(c2ccc(Cl)cc2)C1 [Example 177, 4-(4-{[2-(4-chlorophenyl)-4,4-dimethylcyclohex-1-en-1-yl]methyl}piperazin-1-yl)-N-[(4-{[4-(difluoromethoxy)benzyl]amino}-3-nitrophenyl)sulfonyl]-2-(1H-pyrrolo[2,3-b]pyridin-5-yloxy)benzamide] | 0.159 µM
O=C(NS(=O)(=O)c1ccc(NCC2CCOCC2)c([N+](=O)[O-])c1)c1ccc(N2CCN(CC3=C(c4ccc(Cl)cc4)CCC4(CCCC4)C3)CC2)cc1Oc1cnc2[nH]ccc2c1 [Example 79, 4-(4-{[8-(4-chlorophenyl)spiro[4.5]dec-7-en-7-yl]methyl}piperazin-1-yl)-N-({3-nitro-4-[(tetrahydro-2H-pyran-4-ylmethyl)amino]phenyl}sulfonyl)-2-(1H-pyrrolo[2,3-b]pyridin-5-yloxy)benzamide] | 0.0649 µM
CC1(C)CCC(CN2CCN(c3ccc(C(=O)NS(=O)(=O)c4ccc(OC[C@H]5CC[C@H](O)CC5)c(Cl)c4)c(Oc4cnc5[nH]ccc5c4)c3)CC2)=C(c2ccc(Cl)cc2)C1 [Example 305, N-({3-chloro-4-[(trans-4-hydroxycyclohexyl)methoxy]phenyl}sulfonyl)-4-(4-{[2-(4-chlorophenyl)-4,4-dimethylcyclohex-1-en-1-yl]methyl}piperazin-1-yl)-2-(1H-pyrrolo[2,3-b]pyridin-5-yloxy)benzamide] | 0.0325 µM
CC1(C)CCC(CN2CCN(c3ccc(C(=O)NS(=O)(=O)c4ccc(OCC5(F)CCOCC5)c(C#N)c4)c(Oc4cnc5[nH]ccc5c4)c3)CC2)=C(c2ccc(Cl)cc2)C1 [Example 299, 4-(4-{[2-(4-chlorophenyl)-4,4-dimethylcyclohex-1-en-1-yl]methyl}piperazin-1-yl)-N-({3-cyano-4-[(4-fluorotetrahydro-2H-pyran-4-yl)methoxy]phenyl}sulfonyl)-2-(1H-pyrrolo[2,3-b]pyridin-5-yloxy)benzamide] | 0.068 µM

Source: patent US20240043404A1 (AbbVie Inc., priority 2009, published 2024)
